Reference: patent US20130245064A1, “NOVEL NEUROTRYPSIN INHIBITORS” (priority 2010, published 2013)
Like-named read-outs stand apart in the source and are kept apart here.

Tests used:
[1] = biological target: T1, Trypsin (Sus scrofa, UniProt P00761); test: Determination of IC50 for various proteases (chromogenic substrate, pNA release at 405 nm): trypsin; format: biochemical; conditions: hog trypsin 2 nM, substrate S-2222 0.5 mM; Mean ± SD
T1 construct: purchased Sigma Aldrich
Description: A 6 mM solution of the test compound in DMSO was prepared. In a V-bottom micro plate the 6 mM compound solution was diluted 6 times in DMSO to obtain a concentration row with the following concentrations: 6 mM, 1.8 mM, 540 μM, 162 μM, 48.8 μM, 14.4 μM, and 4 μM. From this DMSO master plate 1:20 dilutions in 10 mM MOPS pH 8.3 were prepared to obtain solutions of 300, 90, 27, 8.1, 2.44, 0.72 and 0.22 μM in MOPS buffer and 5% DMSO.
100 μl of this solution were pipetted into a flat bottom 96 well microplate and placed into a Tecan infinite 200 plate reader. Before measurement, 50 μl of protease solution and, subsequently 50 μl substrate solution were added by the machine. The liberation of free para nitroanilide was detected at 405 nm. The protease solution was freshly prepared by diluting to the desired concentration from a stock solution in 60 mM MOPS; 600 mM NaCl; 20 mM CaCl2; 10% DMSO; 0.4% PEG 6000 pH 8.3. The substrate solution was prepared by dissolving the solid substrate in an adequate amount of water to get the desired concentrations. The used protease and substrate solutions are given below:
All enzymes except trypsin were from human origin (American diagnostic). Trypsin was hog trypsin (Sigma Aldrich). Substrates were purchased from Chromogenix. […]

[2] = biological target: T2, human neurotrypsin (Homo sapiens, UniProt P56730); test: Determination of IC50 for human neurotrypsin; format: biochemical
T2 sequence (P56730 21-875): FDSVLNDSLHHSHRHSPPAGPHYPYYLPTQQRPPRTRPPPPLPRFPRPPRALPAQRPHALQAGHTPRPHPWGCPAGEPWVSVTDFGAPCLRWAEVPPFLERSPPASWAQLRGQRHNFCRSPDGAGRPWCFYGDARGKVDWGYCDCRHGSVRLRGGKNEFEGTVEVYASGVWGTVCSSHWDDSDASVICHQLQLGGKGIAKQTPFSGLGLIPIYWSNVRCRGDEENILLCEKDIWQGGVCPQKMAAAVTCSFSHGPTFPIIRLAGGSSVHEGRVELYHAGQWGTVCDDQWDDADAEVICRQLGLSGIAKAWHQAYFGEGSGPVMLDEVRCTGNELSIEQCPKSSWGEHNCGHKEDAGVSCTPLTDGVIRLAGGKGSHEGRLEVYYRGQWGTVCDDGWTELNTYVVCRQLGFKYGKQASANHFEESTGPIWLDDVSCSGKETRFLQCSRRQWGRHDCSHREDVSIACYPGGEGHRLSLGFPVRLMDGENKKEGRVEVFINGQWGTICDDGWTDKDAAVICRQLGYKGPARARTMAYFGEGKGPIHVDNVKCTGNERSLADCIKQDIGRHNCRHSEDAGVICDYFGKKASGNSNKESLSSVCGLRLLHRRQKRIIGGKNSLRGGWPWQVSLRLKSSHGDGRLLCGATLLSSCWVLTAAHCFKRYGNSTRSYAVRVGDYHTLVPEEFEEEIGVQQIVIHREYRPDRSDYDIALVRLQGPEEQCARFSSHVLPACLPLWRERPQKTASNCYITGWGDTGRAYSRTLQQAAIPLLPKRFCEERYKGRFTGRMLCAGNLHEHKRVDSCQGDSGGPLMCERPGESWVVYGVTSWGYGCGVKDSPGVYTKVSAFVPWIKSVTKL
Description: Determination of IC50 for Human Neurotrypsin
Assessment of the potency of compounds of examples 1-14 in inhibiting the enzymatic activity of human neurotrypsin was performed according to the method described in patent application […]

[3] = Effect of compound on body weight in mice; format: in vivo, C57/BL6 mice; conditions: 25 mg/kg, three subcutaneous injections
Description: Adult (P50) C57/BL6 mice from Charles River were used for the experiments. All animal experiments are performed in accordance with international guidelines for proper conduct of animal experiment under jurisdiction of the Swiss law (Permit number ZH-18/2008). For every mouse in the experiment the well-being during the interventions is documented in a score sheet.
The mice are housed under optimal hygienic conditions (OHB) with controlled air-conditioning and lighting (temperature: 20-24° C., humidity: 55-65%, day/night cycle: 12 h/12 h, lights on 7 a.m.). Individually ventilated cages of type II, L (530 cm^2 floor space) with standard litter are used. A maximum of 6 mice is kept in each cage. Mice are fed with standard rodent chow (Extrudat, KLIBA NAFAG) ad libitum and have free access to drinking water. Animal colony is managed and maintained at BioSupport, Schlieren.
Three adult mice were treated with 2.5 ml/kg of a 10 mg/ml solution of the compound of Example 1 in 100% DMSO. This corresponds to a dose of 25 mg/kg active ingredient. As vehicle control, 3 mice were treated with 2.5 ml/kg of 100% DMSO. Each mouse received three subcutaneous injections. Between dose 1 and dose 2 there were 8 h, between dose 2 and dose 3 16 h. 5 h after the last injection the mice were euthanatized with CO2. […]

T1 sequence (P00761 9-231): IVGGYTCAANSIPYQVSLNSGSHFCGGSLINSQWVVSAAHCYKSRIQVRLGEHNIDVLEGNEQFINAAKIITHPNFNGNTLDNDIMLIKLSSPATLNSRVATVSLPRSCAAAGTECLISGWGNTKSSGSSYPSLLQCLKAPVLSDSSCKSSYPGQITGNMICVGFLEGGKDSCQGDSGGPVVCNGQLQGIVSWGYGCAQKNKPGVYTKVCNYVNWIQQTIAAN

IC50 [1]: > 150 µM | IC50 ([2]; Mean ± SD, read-out: IC50 Neurotrypsin): 0.47 ± 0.15 µM | IC50 ([2]; table of all 14 examples, read-out: Neurotrypsin IC50): 0.4 µM | melting point: > 220 °C
SMILES: O=C(Nc1ccc(C(=O)Nc2ccc(Cl)cc2)c(O)c1)c1ccc(-c2nc3cc(Cl)c(Cl)cc3[nH]2)cc1 [Example 1, N-(4-Chlorophenyl)-4-(4-(5,6-dichloro-1H-benzo[d]imidazol-2-yl)benzamido)-2-hydroxybenzamide]
Weight loss compared to the vehicle control [3]: did not produce any increase in weight loss
